The conditions of data set [1]: aqueous solution, no net charge; cited from earlier work.
For data set [2], the system named is mixed species inoculum culture containing: Lactobacillus casei, Streptococcus oralis, Actinomyces viscosus, Veillonella parvula & Fusobacterium nucleatum. The class given is cell-based. The protocol:
Bacterial kill: A 20-second short interval kill test (SIKT) measures the efficacy of various treatment solutions in killing oral pathogens. […] A mixed species inoculum culture containing: Lactobacillus casei, Streptococcus oralis, Actinomyces viscosus, Veillonella parvula & Fusobacterium nucleatum at an optical density of 0.5 @ 610nm is centrifuged. The supernatant is then aspirated off and the remaining pellicle re-suspended in sterile phosphate buffered saline (PBS). 100 ul of this solution is then treated with 100 ul of test sample for 30 or 60 seconds. Immediately following treatment, the exposure is neutralized by adding 1.3 ml of sterile D/E neutralizing broth. The neutralizing broth is then rinsed off by centrifugation and re-suspension in PBS. 50 ul samples are then transferred in triplicate to a 96-well microplate. The fluorescent dyes are then prepared per the manufacturer's directions and added to the samples. The fluorescence is then measured in a fluorescent plate reader. Data from this assay are presented as a percentage of bacterial remaining viable relative to a control sample treated with PBS.

The nature of data set [3]: Stabilization with multi-charged species: redissolving the DV-CHX precipitate. The format is physicochemical. The note with it: with significant stirring time. The text has this:
Stabilization with Multi-Charged Species: The addition of DV to a solution of CHX causes an immediate precipitation. However, the addition of low levels of surfactants or multi-charged compounds brings both DV and CHX back into solution. The table below lists multiple compounds that help to redissolve the DV-CHX, and what we have found as their lowest effective levels. These solutions are stable from pH 4.9-7. Addition of citric acid to lower the pH to <4.9 causes significant precipitation.

SMILES strings stand for the structures.

Turning to `NCCCC[C@H](N)C(=O)O` [lysine], the isoelectric point in data set [1] is listed as 9.7 pH.

On to `CCO` [Dead, ethanol], for which the “% viability” value in data set [2] amounted to 36.3%.

Turning to `C[N+](C)(C)CC(=O)O` [Betaine], the Lowest effective level in data set [3] (added to solution of 0.12% CHX and 1.025 DV (w/w by actives)) was 0.3% for 0.12% CHX; in data set [3] (added to solution of 0.2% CHX and 1.025 DV (w/w by actives)) it was 0.3% for 0.2% CHX.

The values are drawn from patent US12257334B2, “Oral care compositions” (Colgate-Palmolive Company, priority 2015, dated 2025).
